{
  "source": "patent US7875587B2",
  "about": "“Peptide analogues of GIP for treatment of diabetes, insulin resistance and obesity” (UUTECH Limited, priority 2004, dated 2011)",
  "key": {"human GIP receptor": {"target": "T1, human GIP receptor (Homo sapiens, UniProt P48546)", "T1 construct": "expressed in transfected cells; host or cells: Chinese hamster lung (CHL) fibroblasts, stably transfected", "T1 sequence (P48546 22-466)": "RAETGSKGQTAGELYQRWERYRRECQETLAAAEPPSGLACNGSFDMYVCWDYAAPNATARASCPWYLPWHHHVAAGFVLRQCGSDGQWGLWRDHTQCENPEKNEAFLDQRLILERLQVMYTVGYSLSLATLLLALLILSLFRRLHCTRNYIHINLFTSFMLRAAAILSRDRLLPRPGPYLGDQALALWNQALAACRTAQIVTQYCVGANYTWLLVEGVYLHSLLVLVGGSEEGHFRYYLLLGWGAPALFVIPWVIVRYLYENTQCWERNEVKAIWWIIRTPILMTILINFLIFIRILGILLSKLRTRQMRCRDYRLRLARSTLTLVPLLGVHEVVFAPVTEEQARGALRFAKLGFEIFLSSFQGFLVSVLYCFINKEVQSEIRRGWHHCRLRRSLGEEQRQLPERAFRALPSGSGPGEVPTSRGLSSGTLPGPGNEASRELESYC", "assay": "Intracellular cyclic AMP production in GIP-receptor transfected CHL fibroblasts", "format": "cell-based", "experimental": "In vitro biological activity. […] In brief, CHL cells were seeded into 12-well plates (Nünc, Roskilde, Denmark) at a density of 10^5 cells per well and allowed to grow for 48 hours before being loaded with tritiated adenine (2 μCi; TRK311; Amersham, Buckinghamshire, UK). The cells were then incubated at 37° C. for 6 hours in 1 ml DMEM supplemented with 0.5% (w/v) BSA and subsequently washed twice with HBS buffer (pH 7.4). […] The medium was subsequently removed and the cells lysed with 1 ml of 5% TCA containing 0.1 mmol/l unlabelled cyclic AMP and 0.1 mmol/l unlabelled ATP."}, "BRIN-BD11 cells": {"tested_on": "BRIN-BD11 cells", "assay": "Insulin release from clonal pancreatic BRIN-BD11 cells (Example 6)", "format": "cell-based", "settings": "5.6 mmol/l glucose, 20 minutes incubation", "experimental": "Cells and cell culture. Chinese hamster lung (CHL) fibroblasts stably transfected with the human GIP receptor (Gremlich, S. et al., 1995, Diabetes 44: 1202-1208) were cultured in DMEM tissue culture medium containing 10% (v/v) FBS, 1% (v/v) antibiotics (100 U/ml penicillin, 0.1 mg/ml streptomycin). Clonal pancreatic BRIN-BD11 cells (McClenaghan, N. H. et al., 1996, Diabetes 45: 1132-1140) were cultured using RPMI-1640 culture medium containing 10% (v/v) FBS, 1% (v/v) antibiotics (100 U/ml penicillin, 0.1 mg/ml streptomycin) and 11.1 mmol/l glucose. Cells were maintained at 37° C. in an atmosphere of 5% CO2 and 95% air using an LEEC incubator (Laboratory Technical Engineering, Nottingham, UK).\nInsulin-release studies were carried out using clonal pancreatic BRIN-BD11 cells as described previously (O'Harte, F. P. M. et al., 2002, Diabetologia 45: 1281-1291). Briefly, BRIN-BD11 cells were seeded into 24-well plates at a density of 10^5 cells per well, and allowed to attach overnight at 37° C. Acute tests for insulin release were preceded by 40 minutes pre-incubation at 37° C. in 1.0 ml Krebs Ringer bicarbonate buffer supplemented with 1.1 mmol/l glucose. Test incubations were performed in the presence of 5.6 mmol/l glucose with a range of concentrations (10^−13 to 10^−6 mol/l) of GIP and GIP analogues. After 20 minutes incubation, the buffer was removed from each well and aliquots (200 μl) used for measurement of insulin."}, "[1]": {"target": "T2, purified porcine dipeptidylpeptidase IV (Sus scrofa, UniProt P22411)", "T2 construct": "purchased Sigma (Poole, Dorset, UK)", "T2 sequence (P22411 whole entry)": "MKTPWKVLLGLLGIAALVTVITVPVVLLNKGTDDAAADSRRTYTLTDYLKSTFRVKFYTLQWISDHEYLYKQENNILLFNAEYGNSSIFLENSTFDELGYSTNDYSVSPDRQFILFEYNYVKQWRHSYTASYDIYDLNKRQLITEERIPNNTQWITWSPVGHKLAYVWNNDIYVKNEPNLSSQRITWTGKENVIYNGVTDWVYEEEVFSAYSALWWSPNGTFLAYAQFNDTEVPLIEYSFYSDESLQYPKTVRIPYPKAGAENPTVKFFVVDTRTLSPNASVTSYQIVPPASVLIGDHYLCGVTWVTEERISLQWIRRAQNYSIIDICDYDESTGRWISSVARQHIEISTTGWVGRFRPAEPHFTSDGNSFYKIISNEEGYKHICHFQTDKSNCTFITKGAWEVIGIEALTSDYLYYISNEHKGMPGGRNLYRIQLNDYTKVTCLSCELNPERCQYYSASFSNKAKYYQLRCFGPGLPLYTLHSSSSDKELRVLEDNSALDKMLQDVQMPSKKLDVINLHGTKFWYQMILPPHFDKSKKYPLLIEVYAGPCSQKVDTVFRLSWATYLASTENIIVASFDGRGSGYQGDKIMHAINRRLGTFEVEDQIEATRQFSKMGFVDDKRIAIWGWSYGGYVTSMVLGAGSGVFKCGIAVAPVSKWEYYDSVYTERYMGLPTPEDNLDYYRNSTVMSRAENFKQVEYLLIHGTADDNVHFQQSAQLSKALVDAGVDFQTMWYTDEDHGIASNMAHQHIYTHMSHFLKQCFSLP", "assay": "DPP IV degradation studies of fatty acid derivatised GIP analogues", "format": "in vitro ADME", "settings": "incubation with DPP IV", "experimental": "(§1) DPP IV degradation studies. GIP and fatty acid derivatised GIP analogues were incubated at 37° C. with purified porcine dipeptidylpeptidase IV (5 mU in 50 mmol/l triethanolamine-HCl; pH 7.8) for 0, 2, 4, 8 and 24 hours (final peptide concentration 2 mmol/l). The reactions were subsequently terminated by addition of 10% (v/v) TFA/water and the reaction products separated using HPLC. […] HPLC peak area data were used to calculate % intact peptide remaining throughout the incubation."}, "DPP IV": {"target": "T3, DPP IV (Sus scrofa, UniProt P22411)", "T3 construct": "purchased Sigma (Poole, Dorset, UK)", "T3 sequence (P22411 whole entry)": "as above", "assay": "DPP IV degradation studies of fatty acid derivatised GIP analogues", "format": "in vitro ADME, porcine", "settings": "pig, isolated enzyme dpp iv, pH 7.8, incubation with DPP IV, read-out: % Intact peptide remaining after time (hours)", "experimental": "as §1"}, "ob/ob mice": {"tested_on": "ob/ob mice", "assay": "Acute metabolic and dose-response effects with glucose in 18 h fasted ob/ob mice", "format": "in vivo, mouse", "experimental": "Animals. Obese diabetic (ob/ob) mice derived from the colony maintained at Aston University, UK were used at 12-17 weeks of age. The genetic background and characteristics of the colony used have been outlined in detail elsewhere (Bailey, C. J. et al., 1982, Int. J. Obesity 6:11-21; Gault, V. A. et al., 2003, J. Endocrinol. 176: 133-141). Animals were housed in an air-conditioned room at 22±2° C. with a 12 hours light: 12 hours dark cycle. Drinking water and standard rodent maintenance diet (Trouw Nutrition, Cheshire, UK) were freely available. All test solutions were administered by i.p. injection in a final volume of 5 ml/kg bw. Blood was collected from the cut tip of the tail vein of conscious mice into chilled fluoride/heparin microcentrifuge tubes immediately prior to injection and at the times indicated in the Figures. Plasma was separated using a Beckman microcentrifuge (Beckman Instruments, UK) at 13,000 g for 30 second and stored at −20° C. prior to glucose and insulin determinations. All animal experiments were carried out in accordance with the UK Animals (Scientific Procedures) Act 1986.\nMetabolic and dose-response effects of GIP and N-AcGIP(LysPAL) analogues (at 6.25-25 nmoles/kg bw) following glucose administration (18 mmoles/kg bw) were examined in mice fasted for 18 hours. […] Food intake and body weight were recorded daily. Plasma glucose and insulin concentrations were monitored at 2-6 day intervals. At 14 days, groups of animals were used to evaluate intraperitoneal glucose tolerance (18 mmoles/kg) and insulin sensitivity (50 U/kg). In a separate series, two experimental protocols were employed to examine the possibility of GIP receptor desensitization after 14 days treatment. […] At the end of the 14-day treatment period, pancreatic tissues were excised for measurement of insulin following extraction with 5 ml/g ice-cold acid ethanol (75% ethanol, […], 1.5% HCl). Whole blood was taken for determination of glycated hemoglobin.\nBiochemical analyses. Plasma glucose was assayed by an automated glucose oxidase procedure (Stevens, J. F., 1971, Clin. Chem. Acta 32:199-201) using a Beckman Glucose Analyser II (Beckman, Galway, Ireland). Plasma insulin was determined by dextran-charcoal RIA as described previously (Flatt, P. R. et al., 1981, Diabetologia 20: 573-577). Glycated hemoglobin was determined using cation-exchange columns (Sigma, Poole, Dorset, UK) with measurement of absorbance (415 nm) in wash and eluting buffers using a VersaMax microplate spectrophotometer (Molecular Devices, Wokingham, Berkshire, UK).\nStatistics. Results are expressed as mean±SEM. Data were compared using the unpaired Student's t-test. Where appropriate, data were compared using repeated measures ANOVA or one-way ANOVA, followed by the Student-Newman-Keuls post hoc test. Incremental areas under plasma glucose and insulin curves (AUC) were calculated using a computer-generated program employing the trapezoidal rule (Burington, R. S., 1973, Handbook of Mathematical Tables and Formulae, McGraw-Hill, New York) with baseline subtraction."}},
  "data": [
    {"molecule": "CCCCCCCCCCCCCCCC(=O)NCCCC[C@H](NC(=O)[C@H](CC(=O)O)NC(=O)[C@H](CCSC)NC(=O)[C@H](C)NC(=O)[C@@H](NC(=O)[C@H](CO)NC(=O)[C@H](Cc1ccc(O)cc1)NC(=O)[C@H](CC(=O)O)NC(=O)[C@H](CO)NC(=O)[C@@H](NC(=O)[C@H](Cc1ccccc1)NC(=O)[C@@H](NC(=O)CNC(=O)[C@H](CCC(=O)O)NC(=O)[C@H](C)NC(=O)[C@H](Cc1ccc(O)cc1)NC(C)=O)[C@@H](C)O)[C@@H](C)CC)[C@@H](C)CC)C(=O)N[C@H](C(=O)N[C@@H](Cc1c[nH]cn1)C(=O)N[C@@H](CCC(N)=O)C(=O)N[C@@H](CCC(N)=O)C(=O)N[C@@H](CC(=O)O)C(=O)N[C@@H](Cc1ccccc1)C(=O)N[C@H](C(=O)N[C@@H](CC(N)=O)C(=O)N[C@@H](Cc1c[nH]c2ccccc12)C(=O)N[C@@H](CC(C)C)C(=O)N[C@@H](CC(C)C)C(=O)N[C@@H](C)C(=O)N[C@@H](CCC(N)=O)C(=O)N[C@@H](CCCCN)C(=O)NCC(=O)N[C@@H](CCCCN)C(=O)N[C@@H](CCCCN)C(=O)N[C@@H](CC(N)=O)C(=O)N[C@@H](CC(=O)O)C(=O)N[C@@H](Cc1c[nH]c2ccccc12)C(=O)N[C@@H](CCCCN)C(=O)N[C@@H](Cc1c[nH]cn1)C(=O)N[C@@H](CC(N)=O)C(=O)N[C@H](C(=O)N[C@H](C(=O)N[C@@H](CCC(N)=O)C(=O)O)[C@@H](C)O)[C@@H](C)CC)C(C)C)[C@@H](C)CC", "note": "[N-AcGIP(LysPAL^16)]", "values": [
      {"measurement": "EC50", "setting": "human GIP receptor", "value": 0.0121, "unit": "µM"},
      {"measurement": "insulin secretion compared to control", "setting": "BRIN-BD11 cells", "value": "significantly stimulated glucose-induced insulin secretion"},
      {"measurement": "% Intact peptide remaining after time (hours)", "setting": "[1]; 0 h", "value": 100, "unit": "%"},
      {"measurement": "% Intact peptide remaining after time (hours)", "setting": "[1]; 24 h", "value": "remained completely intact"},
      {"measurement": "remaining at 2 h, 2 mmol/l", "setting": "DPP IV; 2 h", "value": 100, "unit": "%"},
      {"measurement": "remaining at 8 h, 2 mmol/l", "setting": "DPP IV; 8 h", "value": 100, "unit": "%"},
      {"measurement": "remaining at 24 h, 2 mmol/l", "setting": "DPP IV; 24 h", "value": 100, "unit": "%"},
      {"measurement": "enhancement of overall glucose-mediated insulin release (AUC) compared to native GIP", "setting": "ob/ob mice; 25 nmoles/kg i.p. with glucose", "value": 1.5, "unit": "fold"},
      {"measurement": "overall glucose excursion compared to native GIP", "setting": "ob/ob mice; 25 nmoles/kg i.p. with glucose", "value": "decreased the overall glucose excursion"},
      {"measurement": "overall glucose excursion (glucose AUC) compared to glucose alone", "setting": "ob/ob mice; 25 nmoles/kg i.p. with glucose 18 mmoles/kg, 0-60 min", "value": "significantly lowered glucose AUC"}
    ]}
  ]
}
